This passage reports Ki and IC50 results from patent US11795170B2 (Genentech, Inc., priority 2016, dated 2023).

As a reminder, the Ki is the dissociation constant of the complex between target and ligand, obtained from inhibition or displacement. The term IC50 denotes the point on the concentration scale where inhibition reaches its midpoint.

The target of assay [1] is T1, isolated recombinant JAK2 kinase domain (Homo sapiens, UniProt O60674).
T1 construct: The activity of the isolated recombinant JAK1 and JAK2 kinase domain was measured
T1 sequence (O60674 849-1124): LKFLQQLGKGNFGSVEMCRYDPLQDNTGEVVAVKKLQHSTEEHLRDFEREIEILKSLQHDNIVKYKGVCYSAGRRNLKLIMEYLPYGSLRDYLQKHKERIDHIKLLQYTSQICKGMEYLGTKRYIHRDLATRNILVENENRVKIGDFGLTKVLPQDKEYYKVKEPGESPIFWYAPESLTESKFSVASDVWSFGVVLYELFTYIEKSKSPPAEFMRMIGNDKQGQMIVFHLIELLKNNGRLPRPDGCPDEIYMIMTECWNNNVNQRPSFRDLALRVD
Description: JAK2 enzyme assay (Caliper LabChip, peptide phosphorylation). In kind it is biochemical. The following applies: 0.2 nM JAK2, 25 μM ATP, 22° C., 30 minutes; Morrison tight binding model. The protocol:
(§1) JAK Enzyme Assays were Carried Out as Follows:
(§2) The activity of the isolated recombinant JAK1 and JAK2 kinase domain was measured by monitoring phosphorylation of a peptide derived from JAK3 (Val-Ala-Leu-Val-Asp-Gly-Tyr-Phe-Arg-Leu-Thr-Thr, fluorescently labeled on the N-terminus with 5-carboxyfluorescein) using the Caliper LabChip® technology (Caliper Life Sciences, Hopkinton, Mass.). To determine inhibition constants (K), compounds were diluted serially in DMSO and added to 50 μL kinase reactions containing purified enzyme (1.5 nM JAK1, or 0.2 nM JAK2), 100 mM HEPES buffer (pH 7.2), 0.015% Brij-35, 1.5 μM peptide substrate, ATP (25 μM), 10 mM MgCl2, 4 mM DTT at a final DMSO concentration of 2%. Reactions were incubated at 22° C. in 384-well polypropylene microtiter plates for 30 minutes and then stopped by addition of 25 μL of an EDTA containing solution (100 mM HEPES buffer (pH 7.2), 0.015% Brij-35, 150 mM EDTA), resulting in a final EDTA concentration of 50 mM. After termination of the kinase reaction, the proportion of phosphorylated product was determined as a fraction of total peptide substrate using the Caliper LabChip® 3000 according to the manufacturer's specifications. Ki values were then determined using the Morrison tight binding model (Morrison, J. F., Biochim. Biophys. Acta. 185:269-296 (1969); William, J. W. and Morrison, J. F., Meth. Enzymol., 63:437-467 (1979)) modified for ATP-competitive inhibition [Ki=Ki,app/(1+[ATP]/Km,app)].

For assay [2], the target named is T2, isolated recombinant JAK1 kinase domain (Homo sapiens, UniProt P23458).
T2 construct: The activity of the isolated recombinant JAK1 and JAK2 kinase domain was measured
T2 sequence (P23458 875-1153): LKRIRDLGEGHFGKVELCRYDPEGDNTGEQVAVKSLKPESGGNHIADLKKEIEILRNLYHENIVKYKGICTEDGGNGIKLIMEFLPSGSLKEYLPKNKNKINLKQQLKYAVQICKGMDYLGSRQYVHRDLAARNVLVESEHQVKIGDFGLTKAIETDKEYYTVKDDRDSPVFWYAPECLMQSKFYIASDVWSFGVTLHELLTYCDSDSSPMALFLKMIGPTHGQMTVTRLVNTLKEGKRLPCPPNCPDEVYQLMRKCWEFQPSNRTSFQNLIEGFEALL
Briefly: JAK1 enzyme assay (Caliper LabChip, peptide phosphorylation). In kind it is biochemical. To be noted: 1.5 nM JAK1, 25 μM ATP, 22° C., 30 minutes; Morrison tight binding model. The protocol: as §1, §2

Assay [3] deals with JAK1-dependent STAT6 phosphorylation downstream of IL-13 stimulation. Description: JAK1 pathway assay in BEAS-2B cells (IL-13 stimulated pSTAT6, MSD). In kind it is cell-based. To be noted: BEAS-2B human bronchial epithelial cells, 1 hr compound incubation, IL-13 for 15 min; read-out: IL13-pSTAT6 BEAS2B IC50. The protocol:
JAK1 Pathway Assay in Cell Lines was Carried Out as Follows:
Inhibitor potency (EC50) was determined in cell-based assays designed to measure JAK1 dependent STAT phosphorylation. As noted above, inhibition of IL-4, IL-13, and IL-9 signalling by blocking the Jak/Stat signaling pathway can alleviate asthmatic symptoms in pre-clinical lung inflammation models (Mathew et al., 2001, J Exp Med 193(9): 1087-1096; Kudlacz et. al., 2008, Eur J. Pharmacol 582(1-3): 154-161).
In one assay approach, TF-1 human erythroleukemia cells obtained from the American Type Culture Collection (ATCC; Manassas, Va.) were used to measure JAK1-dependent STAT6 phosphorylation downstream of IL-13 stimulation. Prior to use in the assays, TF-1 cells were starved of GM-CSF overnight in OptiMEM medium (Life Technologies, Grand Island, N.Y.) supplemented with 0.5% charcoal/dextran stripped fetal bovine serum (FBS), 0.1 mM non-essential amino acids (NEAA), and 1 mM sodium pyruvate. The assays were run in 384-well plates in serum-free OptiMEM medium using 300,000 cells per well. In a second assay approach, BEAS-2B human bronchial epithelial cells obtained from ATCC were plated at 100,000 cells per well of a 96-well plate one day prior to the experiment. The BEAS-2B assay was run in complete growth medium (bronchial epithelial basal medium plus bulletkit; Lonza; Basel, Switzerland).
Test compounds were serially diluted 1:2 in DMSO and then diluted 1:50 in medium just before use. Diluted compounds were added to the cells, for a final DMSO concentration of 0.2%, and incubated for 30 min (for the TF-1 assay) or 1 hr (for the BEAS-2B assay) at 37° C. Then, cells were stimulated with human recombinant cytokine at their respective EC90 concentrations, as previously determined for each individual lot. Cells were stimulated with IL-13 (R&D Systems, Minneapolis, Minn.) for 15 min at 37° C. The TF-1 cell reactions were stopped by the direct addition of 10× lysis buffer (Cell Signaling Technologies, Danvers, Mass.), whereas the BEAS-2B cell incubations were halted by the removal of medium and addition of 1× lysis buffer. The resultant samples were frozen in the plates at −80° C. Compound mediated inhibition of STAT6 phosphorylation was measured in the cell lysates using MesoScale Discovery (MSD) technology (Gaithersburg, Md.). EC50 values were determined as the concentration of compound required for 50% inhibition of STAT phosphorylation relative to that measured for the DMSO control.

On to `C#Cc1ccc2ncc(C(=O)Nc3c[nH]nc3-c3cc(Cl)ccc3OC(F)F)n2n1` [Example 3, N-[3-[5-chloro-2-(difluoromethoxy)phenyl]-1H-pyrazol-4-yl]-6-ethynyl-imidazo[1,2-b]pyridazine-3-carboxamide], for which the values for the inhibition constant (Ki) in assay [1] and in assay [2] were 0.076 nM and 0.29 nM, respectively. Also, the IC50 in assay [3] turned out to be 21 nM.

Consider `CSc1ccc(OC(F)F)c(-c2n[nH]cc2NC(=O)c2cnc3cccnn23)c1` [Example 13, N-[3-[2-(difluoromethoxy)-5-(methylsulfanyl)phenyl]-1H-pyrazol-4-yl]imidazo[1,2-b]pyridazine-3-carboxamide], for which the Ki in assay [1] came to 0.05 nM; in assay [2], 0.11 nM. Moreover, in assay [3], the IC50 was 2.9 nM.

Regarding `NCCn1cc(NC(=O)c2cnc3cccnn23)c(-c2cc(Cl)ccc2OC(F)F)n1` [Example 7, N-[1-(2-aminoethyl)-3-[5-chloro-2-(difluoromethoxy)phenyl]-1H-pyrazol-4-yl]imidazo[1,2-b]pyridazine-3-carboxamide], the values for the Ki in assay [1] and in assay [2] were 0.53 nM and 0.72 nM, respectively. In addition, in assay [3], the IC50 was determined as 34 nM.

With `N#CC1(CNC2CCN(C(=O)Cn3cc(NC(=O)c4cnc5cccnn45)c(-c4cc(Cl)ccc4OC(F)F)n3)CC2)CC1` [Example 5, N-[3-[5-chloro-2-(difluoromethoxy)phenyl]-1-[2-(4-[[(1-cyanocyclopropyl)-methyl]amino]piperidin-1-yl)-2-oxoethyl]-1H-pyrazol-4-yl]imidazo[1,2-b]pyridazine-3-carboxamide], the Ki is 2.4 nM in assay [1] and 0.56 nM in assay [2]. Also, the IC50 in assay [3] was 110 nM.

As for `CSc1ccc(OC(F)F)c(-c2nn(CC(=O)N3CCC(CN4CCN(CC(=O)N(C)C)CC4)CC3)cc2NC(=O)c2cnc3cccnn23)c1` [Example 11], the Ki in assay [1] is 0.69 nM; in assay [2], 0.51 nM. The IC50 in assay [3] was 200 nM.

Turning to `O=C(Nc1cn(CC(=O)N2CCC(N3CCOCC3)CC2)nc1-c1cc(Cl)ccc1OC(F)F)c1cnc2cccnn12` [Example 4, N-[3-[5-chloro-2-(difluoromethoxy)phenyl]-1-[2-[4-(morpholin-4-yl)piperidin-1-yl]-2-oxoethyl]-1H-pyrazol-4-yl]imidazo[1,2-b]pyridazine-3-carboxamide], the Ki is 1.2 nM in assay [1] and 0.36 nM in assay [2]. In addition, in assay [3], the IC50 turned out to be 20 nM.

Take `O=C(Nc1c[nH]nc1-c1cc(Cl)ccc1OC(F)F)c1cnc2ccc(Cl)nn12` [Example 2, 6-chloro-N-[3-[5-chloro-2-(difluoromethoxy)phenyl]-1H-pyrazol-4-yl]imidazo[1,2-b]pyridazine-3-carboxamide]: the Ki came out at 0.2 nM in assay [1] and 1.5 nM in assay [2]. Also, the IC50 in assay [3] came out at 16 nM.

Take `O=C(Nc1c[nH]nc1-c1cc(Cl)ccc1OC(F)F)c1cnc2cccnn12` [Example 6, N-[3-[5-chloro-2-(difluoromelhoxy)phenyl]-1H-pyrazol-4-yl]imidazo[1,2-b]pyridazine-3-carboxamide]: the values for the inhibition constant Ki in assay [1] and in assay [2] were 0.063 nM and 0.18 nM, respectively. Moreover, the IC50 in assay [3] is 4.5 nM.

`CN(C1CCN(C(=O)Cn2cc(NC(=O)c3cnc4cccnn34)c(-c3cc(Cl)ccc3OC(F)F)n2)CC1)C1COC1` [Example 1, N-[3-[5-chloro-2-(difluoromethoxy)phenyl]-1-(2-[4-[methyl(oxetan-3-yl)amino]piperidin-1-yl]-2-oxoethyl)-1H-pyrazol-4-yl]imidazo[1,2-b]pyridazine-3-carboxamide]: the Ki came to 0.96 nM in assay [1] and 0.33 nM in assay [2]. The IC50 in assay [3] was determined as 74 nM.

Take `CC(C)Sc1ccc(OC(F)F)c(-c2n[nH]cc2NC(=O)c2cnc3cccnn23)c1` [Example 10, N-[3-[2-(difluoromethoxy)-5-(propan-2-ylsulfanyl)phenyl]-1H-pyrazol-4-yl]imidazo[1,2-b]pyridazine-3-carboxamide]: the Ki in assay [1] is 0.26 nM; in assay [2] it was 0.41 nM. Besides, the IC50 in assay [3] amounted to 7.5 nM.

In the case of `Cn1cc(NC(=O)c2cnc3cccnn23)c(-c2cc(Cl)ccc2OC(F)F)n1` [Example 8, N-[3-[5-chloro-2-(difluoromethoxy)phenyl]-1-methyl-1H-pyrazol-4-yl]imidazo[1,2-b]pyridazine-3-carboxamide], the Ki in assay [1] was 0.14 nM; in assay [2], 0.28 nM. The IC50 in assay [3] came to 6 nM.

In the case of `O=C(Nc1c[nH]nc1-c1cc(SC2CC2)ccc1OC(F)F)c1cnc2cccnn12` [Example 9, N-[3-[5-(cyclopropylsulfanyl)-2-(difluoromethoxy)phenyl]-1H-pyrazol-4-yl]imidazo[1,2-b]pyridazine-3-carboxamide], the Ki in assay [1] is 0.12 nM; in assay [2], 0.29 nM. Besides, the IC50 in assay [3] is 11 nM.

As to `O=C(Nc1cn(CC(=O)N2CCN(CCN3CCOCC3)CC2)nc1-c1cc(Cl)ccc1OC(F)F)c1cnc2cccnn12` [Example 12, N-[3-[5-chloro-2-(difluoromethoxy)phenyl]-1-(2-[4-[2-(morpholin-4-yl)ethyl]piperazin-1-yl]-2-oxoethyl)-1H-pyrazol-4-yl]imidazo[1,2-b]pyridazine-3-carboxamide], the figures for the Ki in assay [1] and in assay [2] were 2 nM and 0.65 nM, respectively. In addition, the half-maximal inhibitory concentration (IC50) in assay [3] is 150 nM.
